# Test results taken from article PMC5244392, “Interspecies cathelicidin comparison reveals divergence in antimicrobial activity, TLR modulation, chemokine induction and regulation of phagocytosis” (Scientific Reports, 2017).
# Experiments:
# E. coli and MRSA = assay type: cell-based; conditions: run of Fig. 1A; bacterium and medium not given
# Protocol: In order to compare our Cmax with MBC values, wells without visible bacterial growth were plated out on TSA plates and incubated o/n at 37 °C to determine the presence of viable bacteria.
# The antimicrobial capacities were tested under the same conditions and expressed as growth delay instead of the more classical MIC/MBC determination using broth dilution assays. […] The fact that DMEM medium makes S. aureus susceptible to PR-39 is surprising since this peptide is thought to require active uptake by the SbmA transporter, only present in Gram – bacteria. The results obtained in this work, might indicate that the peptide possibly switches to a different mechanism of action with initially a bacteriostatic effect, but more thorough studies are required to elucidate the details of these initial observations.
# E. coli O78 = assay: Bacterial growth delay (Bioscreen C), E. coli; assay type: cell-based, Escherichia coli; conditions: for Max: hours growth delay with 20 μM cathelicidin, E. coli, DMEM: DMEM + FCS
# Protocol: (§1) E. coli O78 (Zoetis Animal Health, Kalamazoo, MI, USA), E. coli ATCC 25922, Staphylococcus aureus ATCC 29213, and methicillin resistant Staphylococcus aureus (MRSA) (WKZ-2, human clinical isolate) were grown overnight from a glycerol stock in Mueller Hinton Broth (MHB) (Becton Dickinson, USA). Before use, bacteria were grown to mid-log phase in MHB for 2 hours at 37 °C, 200 RPM. Murine RAW264.7 macrophages (ATCC-TIB-71) were obtained from the American Type Culture Collection (ATCC, Manassas, VA, USA) and cultured in DMEM (41966-029; Thermo Fisher Scientific, Waltham, MA, USA) supplemented with 10% FCS (Bodinco B.V., Alkmaar, the Netherlands) (DMEM + FCS) at 37 °C, 5.0% CO2. Cells were seeded in 96-wells plates at 5 × 10^5 cells/ml or 12-wells plates at 2 × 10^5/ml for adherence overnight prior to stimulation.
# (§2) Peptides (0.63 to 40 μM) and bacteria mid-log cultures (2 * 10^6 CFU/ml) were prepared in MHB or DMEM + FCS and mixed (100 μl peptide + 100 μl bacterial culture) in a Bioscreen C analyzer plate (Oy Growth Curves Ab Ltd, Helsingfors, Finland). Plates were placed in a Bioscreen C analyzer (Oy Growth Curves Ab Ltd) and bacteria were grown for 16 h at 37 °C with 200 RPM. The OD was measured every 15 minutes using a wideband filter (450–580 nm) to measure bacterial growth. The time needed grow above an OD of 0.6 was determined for all concentrations. Activity of peptides was expressed as the Cmax, the concentration of peptide required to delay the growth for 10 h compared to the control. Or, for peptides with low activity (no Cmax), activity was expressed as the hours of growth delay at 20 μM. Unlike the classic MIC and MBC determination used in microbiology, this method also enabled comparison of peptides with low antibacterial activity.
# (§3) Twelve cathelicidins from 6 different species were selected for this study, namely: human LL-37, murine CRAMP, dog K9CATH, equine CATH (eCATH)-1, -2 and -3, chicken CATH (chCATH)-1, -2, and -3, porcine PMAP-23 and -36 and PR-39 (Table 1). Antimicrobial activity against E. coli and MRSA was directly compared under standardized conditions in MHB, a medium optimized for bacterial growth. Bacterial growth delay was defined as the delay in hours for peptide-treated bacteria to reach an OD of 0.6, compared to the non-treated control. Cmax is the minimal concentration needed to delay growth for a minimum of 10 hours compared to the non-treated control (Table 1 and Fig. 1A).
# (§4) Figure 1 Antibacterial activity of cathelicidins. E. coli and MRSA (1 × 10^6 CFU/ml) of were grown in MHB or DMEM ± FCS for 16 hours under constant shaking (200 RPM). Every 15 minutes the OD was measured. Growth delay was defined as the time needed for peptide-treated bacteria to grow above an OD of 0.6 compared to the control bacteria (no peptide added) (A). Cathelicidins were tested in different concentrations (0.31 μM, 0.63 μM, 1.25 μM, 2.5 μM, 5 μM, 10 μM, and 20 μM) to determine the antimicrobial activity in MHB against E. coli (B) or MRSA (C) and in more physiological medium DMEM + FCS (D,E). Results are presented as average +/− SEM (N = 4).
# [1] = test system: methicillin resistant Staphylococcus aureus (MRSA) (WKZ-2, human clinical isolate); assay: Bacterial growth delay (Bioscreen C), MRSA; assay type: cell-based
# Protocol: as §1, §2, §3, §4
# [2] = test system: CCL2 (MCP-1) release by RAW264.7 cells; assay: Cathelicidin induced CCL2 release; assay type: cell-based, murine; conditions: 24 h, peptide 0.08-20 μM
# Protocol: as §1
# ELISA Duoset kits for mouse TNFα, CCL5, CXCL10 and IL-10 were obtained from R&D systems (Minneapolis, MN, USA) and ELISAs were performed according to the manufacturer’s protocol. Samples were stored at −20 °C until analysis and, if needed, diluted in 1% BSA in PBS, pH 7.4. Absorbance at 450 nm was determined in a FLUOstar Omega microplate reader (BMG Labtech GmbH) and corrected for absorbance at 570 nm. Results were analyzed with MARS data analysis software (BMG Labtech GmbH).
# Since cathelicidins have membrane-perturbing properties which might affect the host’s cell membrane, first the possible cytotoxicity of the cathelicidins to RAW264.7 cells was assessed. […] Next, RAW264.7 cells were stimulated with the cathelicidins at various concentrations for 2 h and 24 h, after which release of CCL2 (MCP-1), CCL5 (RANTES), CXCL10 (IP-10), TNFα and IL-10 was determined.
# Figure 2 Cathelicidin induced chemokine and cytokine release by RAW264.7 cells. RAW264.7 cells were incubated for 2 h and 24 h with cathelicidins (0.08 μM, 0.31 μM, 1.25 μM, 5 μM, and 20 μM), after which the supernatants were harvested and tested for release of CCL2 at 2 h (A) and 24 h (B), CCL5 at 24 h (C) and CXCL10 at 24 h (D). Dotted line represents average cytokine release of control samples. Results are presented as average +/− SEM (N = 3). Statistical differences were determined by Two-way ANOVA with Bonferroni post-hoc test.
# RAW264.7 cells = assay: Phagocytosis assay with fluorescent latex beads; assay type: cell-based, murine; conditions: latex beads 10 per cell, 30 min, peptide 0.31, 1.25 and 5 μM
# Protocol: Red fluorescent (λex 575 nm and λem 610 nm) carboxylate-modified polystyrene latex beads (0.5 μm; Sigma Aldrich, St. Louis, MO, USA) were washed three times with PBS and resuspended in culture medium. Peptide dilutions were prepared in culture medium and added to RAW264.7 cells, directly followed by the latex beads (ratio 10 beads to 1 cell). Cells were incubated for 30 minutes at 37 °C, 5% CO2 (energy-dependent uptake) or 0 °C (non-specific adherence), after which cells were washed extensively with ice-cold PBS supplemented with 1% FCS and 0.01% NaN3, to remove all free beads. After washing, cells were scraped and resuspended in FACS buffer (PBS supplemented with 0.5% BSA). Samples were measured with the BD FACSCanto II flow cytometer (BD Biosciences, San Jose, CA, USA) and analyzed with FlowJo software (Ashland, OR, USA). Mean fluorescence intensity (MFI), corrected for non-specific adherence, was used as an indicator for the number of beads taken up.
# While the above-described functions of cathelicidins are well-known, relatively little is known about the influence of cathelicidins on phagocytosis. Therefore, RAW264.7 cells were incubated with fluorescent beads to study the effect of cathelicidins on phagocytosis. The uptake was corrected for fluorescence measured after incubation on ice instead of 37 °C, which inhibits the active process of phagocytosis. After 30 minutes, 90% of the RAW264.7 cells took up latex beads (Fig. 4A). Histograms exemplify changes in bead phagocytosis with different concentrations of K9CATH (Fig. 4B), eCATH-2 (Fig. 4C) and chCATH-3 (Fig. 4D). Effect of all cathelicidins are depicted by the average mean fluorescence intensity (MFI) in Fig. 4E.
# Figure 4 Effects of cathelicidins on phagocytosis by RAW264.7 cells. RAW264.7 cells were incubated with cathelicidins (0.31 μM, 1.25 μM, and 5 μM) and red fluorescent latex beads (10 beads to 1 cell) at 37 °C (energy dependent uptake) or on ice (non-specific adherence) for 30 minutes. Histograms show control (no peptide present) bead uptake at 37 °C (gray, filled) and 0 °C (black line) (A), or uptake in presence of different concentrations of indicated cathelicidins (B–D); 0 μM (red, filled), 0.31 μM (black line), 1.25 μM (green line) or 5 μM (blue line). Uptake was quantified by determining the MFI after correction for 0 °C control (E). Results are presented as average +/− SEM (N = 3). Statistical differences were determined by Two-way ANOVA with Bonferroni post-hoc test.
# [3] = 20 μM peptide, given if no Cmax was reached, N = 4
# [4] = MHB, 20 μM peptide, given if no Cmax was reached, N = 4
Compound,MBC (E. coli and MRSA) [µM],"Max: hours growth delay with 20 μM cathelicidin, E. coli, DMEM (E. coli O78; [3]) [h]","Cmax: cathelicidin concentration resulting in a delay in bacterial growth with minimal 10 hours, E. coli, MHB (E. coli O78; MHB, 1 × 10^6 CFU/ml, peptide 0.31-20 μM, 16 h, 37 °C, 200 RPM, time to OD 0.6 vs control, — = no Cmax reached up to 20 μM, N = 4) [µM]","Summary class, antimicrobial activity E. coli MHB (E. coli O78; MHB, − is not defined in the key)","Cmax, MRSA, DMEM ([1]; DMEM + FCS, 1 × 10^6 CFU/ml, peptide 0.31-20 μM, 16 h, 37 °C, — = no Cmax reached up to 20 μM, N = 4) [µM]","Summary class, antimicrobial activity S. aureus DMEM ([1]; DMEM + FCS, MRSA, − is not defined in the key)","Max: hours growth delay with 20 μM cathelicidin, MRSA, MHB [1, 4] [h]","Summary class, antimicrobial activity S. aureus MHB ([1]; MHB, MRSA, − is not defined in the key)","Effect on CCL2 secretion after 24 h stimulation, in words [2]","Effect on bead uptake (phagocytosis), in words (RAW264.7 cells)","Activity against E. coli in MHB, in words (E. coli O78; MHB, peptide up to 20 μM)","Max: hours growth delay with 20 μM cathelicidin, E. coli, MHB (E. coli O78; MHB, 20 μM peptide, given if no Cmax was reached, time to OD 0.6 vs control, N = 4) [h]","Max: hours growth delay with 20 μM cathelicidin, MRSA, DMEM ([1]; DMEM + FCS, 20 μM peptide, given if no Cmax was reached, N = 4) [h]"
CC[C@H](C)[C@H](NC(=O)[C@H](CCCCN)NC(=O)[C@H](CCC(=O)O)NC(=O)[C@H](CCCCN)NC(=O)[C@H](CO)NC(=O)[C@H](CCCCN)NC(=O)[C@H](CCCNC(=N)N)NC(=O)[C@H](Cc1ccccc1)NC(=O)[C@H](Cc1ccccc1)NC(=O)[C@H](CC(=O)O)NC(=O)CNC(=O)[C@H](CC(C)C)NC(=O)[C@@H](N)CC(C)C)C(=O)NCC(=O)N[C@@H](CCCCN)C(=O)N[C@@H](CCC(=O)O)C(=O)N[C@@H](Cc1ccccc1)C(=O)N[C@@H](CCCCN)C(=O)N[C@@H](CCCNC(=N)N)C(=O)N[C@H](C(=O)N[C@H](C(=O)N[C@@H](CCC(N)=O)C(=O)N[C@@H](CCCNC(=N)N)C(=O)N[C@H](C(=O)N[C@@H](CCCCN)C(=O)N[C@@H](CC(=O)O)C(=O)N[C@@H](Cc1ccccc1)C(=O)N[C@@H](CC(C)C)C(=O)N[C@@H](CCCNC(=N)N)C(=O)N[C@@H](CC(N)=O)C(=O)N[C@@H](CC(C)C)C(=O)N[C@H](C(=O)N1CCC[C@H]1C(=O)N[C@@H](CCCNC(=N)N)C(=O)N[C@H](C(=O)N[C@@H](CCC(=O)O)C(=O)N[C@@H](CO)C(=O)O)[C@@H](C)O)C(C)C)[C@@H](C)CC)C(C)C)[C@@H](C)CC [LL-37],> 20,–,–,–,–,–,–,–,–,–,–,–,–
"KRFGRLAKSFLRMRILLPRRKILLAS [eCATH-1, equine CATH-1, 26 residues, charge +9]",–,3.5,20,+++ (+++ = Cmax at ≤20 μM),20,+++ (+++ = Cmax at ≤20 μM),7.5,+ (+ = >4 hours inhibition at 20 μM),non-significant,did not affect bead uptake,–,–,–
"KRFHSVGSLIQRHQQMIRDKSEATRHGIRIITRPKLLLAS [eCATH-3, equine CATH-3, 40 residues, charge +10]",–,1.5,–,–,–,–,0.0,–,–,did not affect bead uptake,no or very little activity,0.0,1.5
